According to patent EP4509511A1, “SUBSTITUTED SPIRO-ISOXAZOLINYL LACTAMS, SALTS THEREOF AND THEIR USE AS HERBICIDALLY ACTIVE SUBSTANCES” (Bayer Aktiengesellschaft, priority 2023, dated 2025):

Columns and labels:
ZEAMX = experiment: Pre-emergence effects on crop plants; type: in vivo, Zea mays; details: crop plant
Text: (§1) Seeds of mono- and dicotyledonous weed plants and crop plants were sown, in plastic or organic planting pots, in sandy loam and covered with soil. The compounds according to the invention, formulated in the form of wettable powders (WP) or as emulsifiable concentrates (EC), were applied to the surface of the covering soil as aqueous suspension or emulsion, with the addition of 0.5% of an additive, at an application rate of 600 1 of water/ha (converted). Following treatment, the pots were placed in a greenhouse and kept under optimum growth conditions for the test plants. The visual grading of the damage to the test plants was carried out after ca. 3 weeks in comparison to untreated controls (herbicidal effect in percent (%): 100% effect = plants have died off, 0% effect = as control plants). Tables D1 to D5 below show the effects of various compounds of the general formula (I) according to Table 1 on various crop plants and an application rate corresponding to 320 g/ha or below obtained by the experimental procedure mentioned above in Biological Examples, Section C. Table […]: pre-emergence activity at 320g/ha against ZEAMX in %

STEME [1] = experiment: Herbicidal post-emergence action - Part I; type: in vivo, Stellaria media; details: 1280 g/ha, one-leaf stage, rated visually after about 3 weeks vs untreated controls
Summary of the method: (§2)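 Greenhouse weeds grown in sandy loam were sprayed post-emergence at the one-leaf stage, 2-3 weeks after sowing. Compounds were applied as WP or EC in water with 0.5% additive at 600 L/ha, at 1280 g/ha or below. Visual damage was rated after about 3 weeks versus untreated plants (0-100%).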

ALOMY = experiment: Herbicidal pre-emergence action - Part II; type: in vivo, Alopecurus myosuroides; details: visual grading after ca. 3 weeks vs untreated controls
Text: (§3) Seeds of mono- and dicotyledonous weed plants and crop plants were sown, in plastic or organic planting pots, in sandy loam and covered with soil. The compounds according to the invention, formulated in the form of wettable powders (WP) or as emulsifiable concentrates (EC), were applied to the surface of the covering soil as aqueous suspension or emulsion, with the addition of 0.5% of an additive, at an application rate of 600 1 of water/ha (converted). Following treatment, the pots were placed in a greenhouse and kept under optimum growth conditions for the test plants. The visual grading of the damage to the test plants was carried out after ca. 3 weeks in comparison to untreated controls (herbicidal effect in percent (%): 100% effect = plants have died off, 0% effect = as control plants). Tables C1 to C12 below show the effects of selected compounds of the general formula (I) according to table 1 on various harmful plants and an application rate corresponding to 320 g/ha or below obtained by the experimental procedure mentioned above. Table C1: pre-emergence activity at 320g/ha against ABUTH in %

ORYZA = experiment: Pre-emergence effects on crop plants; type: in vivo, Oryza sativa; details: crop plant
Text: as §1

MATIN = experiment: Herbicidal post-emergence action - Part I; type: in vivo, Matricaria inodora; details: one-leaf stage, rated visually after about 3 weeks vs untreated controls
Summary of the method: as §2

SETVI = experiment: Herbicidal pre-emergence action - Part I; type: in vivo, Setaria viridis; details: visual grading after ca. 3 weeks vs untreated controls
Summary of the method: (§4)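 Visual % injury, ~3 weeks post-application, relative to untreated pots. Treatment: aqueous WP/EC preparation with 0.5% additive sprayed pre-emergence on soil at 600 l/ha, application rate 1280 g/ha or less.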

TRZAS = experiment: Post-emergence effects on crop plants; type: in vivo, Triticum aestivum; details: crop plant
Summary of the method: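 Crop plants were grown in sandy loam in the greenhouse and sprayed at the single-leaf stage, 2–3 weeks after sowing, with WP or EC formulations plus 0.5% additive in 600 l water/ha, at rates of 320 g/ha or below. Injury was scored visually about 3 weeks later as % effect versus untreated controls (100% = plants dead).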

STEME [2] = experiment: Herbicidal pre-emergence action - Part I; type: in vivo, Stellaria media; details: visual grading after ca. 3 weeks vs untreated controls
Summary of the method: as §4

AMARE = experiment: Herbicidal pre-emergence action - Part II; type: in vivo, Amaranthus retroflexus; details: visual grading after ca. 3 weeks vs untreated controls
Text: as §3

LOLRI = experiment: Herbicidal pre-emergence action - Part II; type: in vivo, Lolium rigidum; details: 320 g/ha; Table C7
Text: as §3

GLXMA = experiment: Post-emergence effects on crop plants; type: in vivo, Glycine max; details: crop plant
Text: Seeds of mono- and dicotyledonous weed plants and crop plants were sown, in plastic or organic planting pots, in sandy loam, covered with soil and grown in a greenhouse under controlled growth conditions. 2 to 3 weeks after sowing, the test plants were sprayed in the single-leaf stage. The compounds according to the invention, formulated in form of wettable powders (WP) or as emulsifiable concentrates (EC), were sprayed onto the green plant parts as aqueous suspension or emulsion, with the addition of 0.5% of an additive, at an application rate of 600 1 of water/ha (converted). The test plants were placed in the greenhouse for ca. 3 weeks under optimum growth conditions, and then the effect of the preparations was assessed visually in comparison with untreated controls (herbicidal effect in percent (%): 100% effect = plants have died off, 0% effect = as control plants). Tables F1 to F5 below show the effects of selected compounds of the general formula (I) according to table 1 on various crop plants and an application rate corresponding to 320 g/ha or below obtained by the experimental procedure mentioned above. Table […]: post-emergence activity at 5g/ha against ZEAMX in %

Structure (SMILES)	pre-emergence activity against ZEAMX (ZEAMX; 80 g/ha, Table D1b) [%]	pre-emergence activity against ZEAMX (ZEAMX; 320 g/ha, Table D1a) [%]	post-emergence activity at 1280g/ha against STEME in % (STEME [1]) [%]	pre-emergence activity at 320g/ha against ALOMY in % (ALOMY) [%]	pre-emergence activity against ORYZA (ORYZA; 80 g/ha, Table D3b) [%]	post-emergence activity at 320g/ha against MATIN in % (MATIN) [%]	post-emergence activity at 1280g/ha against MATIN in % (MATIN) [%]	pre-emergence activity at 80g/ha and against SETVI in % (SETVI; 80 g/ha) [%]	pre-emergence activity at 320g/ha and against SETVI in % (SETVI) [%]	pre-emergence activity at 1280g/ha and against SETVI in % (SETVI) [%]	post-emergence activity against TRZAS (TRZAS; 80 g/ha, Table F2c) [%]	post-emergence activity against TRZAS (TRZAS; 320 g/ha, Table F2d) [%]	pre-emergence activity at 80g/ha against STEME in % (STEME [2]; 80 g/ha) [%]	pre-emergence activity at 320g/ha against STEME in % (STEME [2]) [%]	pre-emergence activity at 1280g/ha against STEME in % (STEME [2]) [%]	pre-emergence activity at 320g/ha against AMARE in % (AMARE) [%]	pre-emergence activity against LOLRI (LOLRI) [%]	post-emergence activity against GLXMA (GLXMA; 80 g/ha, Table F4c) [%]	pre-emergence activity against ORYZA (ORYZA; Table D3a, title: 320g/ha, application rate: 80 g/ha) [%]	post-emergence activity against GLXMA (GLXMA; Table F4d, title: 320 g/ha, application rate: 80 g/ha) [%]
Cc1ccsc1C1=NOC2(CCCN(Cc3c(F)cccc3F)C2=O)C1 (racemic) [Compound I-2]	0	0	90	90	0	90	90	100	100	100	0	0	90	90	90	90	90	0		
Cc1ccsc1C1=NOC2(CCN(Cc3c(F)cccc3F)C2=O)C1 (racemic) [Compound I-16, 7-(2,6-Difluorobenzyl)-3-(3-methyl-2-thienyl)-1-oxa-2,7-diazaspiro[4.4]non-2-en-6-one]	10	20	90	80	0		90		100	100	0	0			90	80	100	0	20	0
O=C1N(Cc2ccccc2F)CCC12CC(c1c(F)cccc1F)=NO2 (racemic) [Compound I-10]	0	0	90	80	0	90	90		90	100	0	10		90	90	80	80	0		
